Each molecule was assayed against SARS-CoV-2 main protease (Mpro) (Severe acute respiratory syndrome coronavirus 2, UniProt P0DTD1) (assay: cell-based).
`COc1cccc2[nH]c(C(=O)N[C@@H](Cc3cccc(F)c3)C(=O)N[C@@H](C[C@@H]3CCNC3=O)C(=O)COc3c(F)c(F)c(CO)c(F)c3F)cc12` [compound 1, N-((S)-3-(3-Fluorophenyl)-1-oxo-1-(((S)-3-oxo-1-((S)-2-oxopyrrolidin-3-yl)-4-(2,3,5,6-tetrafluoro-4-(hydroxymethyl)phenoxy)butan-2-yl)amino)propan-2-yl)-4-methoxy-1H-indole-2-carboxamide] was tested, and the EC50 was 105 nM.
`COc1cccc2[nH]c(C(=O)N[C@H](Cc3cccc(F)c3)C(=O)N[C@@H](C[C@@H]3CCNC3=O)C(=O)COc3c(F)c(F)c(CO)c(F)c3F)cc12` [compound 2, N-((R)-3-(3-Fluorophenyl)-1-oxo-1-(((S)-3-oxo-1-((S)-2-oxopyrrolidin-3-yl)-4-(2,3,5,6-tetrafluoro-4-(hydroxymethyl)phenoxy)butan-2-yl)amino)propan-2-yl)-4-methoxy-1H-indole-2-carboxamide] gave an EC50 of 18600 nM.
With `CCCCCCCCCCCCCCCC(=O)N[C@@H](Cc1cccc(F)c1)C(=O)N[C@@H](C[C@@H]1CCNC1=O)C(=O)COc1c(F)c(F)c(CO)c(F)c1F` [compound 4, N-((S)-3-(3-Fluorophenyl)-1-oxo-1-(((S)-3-oxo-1-((S)-2-oxopyrrolidin-3-yl)-4-(2,3,5,6-tetrafluoro-4-(hydroxymethyl)phenoxy)butan-2-yl)amino)propan-2-yl)palmitamide] the EC50 was greater than 50100 nM.
With `O=C(N[C@@H](Cc1c[nH]c2ccccc12)C(=O)N[C@@H](C[C@@H]1CCNC1=O)C(=O)COc1c(F)c(F)c(CO)c(F)c1F)c1cc2ccccc2[nH]1` [compound 5, N-((S)-3-(1H-Indol-3-yl)-1-oxo-1-(((S)-3-oxo-1-((S)-2-oxopyrrolidin-3-yl)-4-(2,3,5,6-tetrafluoro-4-(hydroxymethyl)phenoxy)butan-2-yl)amino)propan-2-yl)-1H-indole-2-carboxamide] the EC50 was 2880 nM.
`COc1cccc2[nH]c(C(=O)N[C@@H](Cc3cccc(F)c3)C(=O)N[C@@H](C[C@@H]3CCNC3=O)C(=O)COc3c(F)c(F)c(C(C)O)c(F)c3F)cc12` (stereo partly drawn) [compound 8, N-((2S)-3-(3-Fluorophenyl)-1-oxo-1-(((2S)-3-oxo-1-((S)-2-oxopyrrolidin-3-yl)-4-(2,3,5,6-tetrafluoro-4-(1-hydroxyethyl)phenoxy)butan-2-yl)amino)propan-2-yl)-4-methoxy-1H-indole-2-carboxamide] was tested, and the EC50 was 8.71 nM.
`COc1cccc2[nH]c(C(=O)N[C@@H](Cc3cccc(F)c3)C(=O)N[C@@H](C[C@@H]3CCNC3=O)C(=O)COc3c(F)c(F)c(C(C)(C)O)c(F)c3F)cc12` [compound 10, N-((S)-3-(3-Fluorophenyl)-1-oxo-1-(((S)-3-oxo-1-((S)-2-oxopyrrolidin-3-yl)-4-(2,3,5,6-tetrafluoro-4-(2-hydroxypropan-2-yl)phenoxy)butan-2-yl)amino)propan-2-yl)-4-methoxy-1H-indole-2-carboxamide] gave an EC50 of 4.68 nM.
In the case of `COc1cccc2[nH]c(C(=O)N[C@@H](Cc3cccc(F)c3)C(=O)N[C@@H](C[C@@H]3CC(=O)NC3=O)C(=O)COc3c(F)c(F)c(C(C)(C)O)c(F)c3F)cc12` [compound 11], the EC50 is reported as 1230 nM.
For `COc1cccc2[nH]c(C(=O)N[C@@H](Cc3cccc(F)c3)C(=O)N[C@@H](C[C@@H]3CCNC3=O)C(=O)COc3c(F)c(F)c(F)c(F)c3F)cc12` [compound 16, reference compound], the EC50 was less than 3.02 nM.
“N-((S)-3-(3-Fluorophenyl)-1-oxo-1-(((S)-2-oxo-5-(5-oxo-1,5-dihydro-4H-1,2,4-triazol-4-yl)-1-(2,3,5,6-tetrafluoro-4-(2-hydroxypropan-2-yl)phenoxy)pentan-3-yl)amino)propan-2-yl)-4-methoxy-1H-indole-2-carboxamide [compound 12]” was tested, and the “M^pro reporter assay pEC50” value was 4.66.
